Where a name gives a salt, the structure may show the parent alone. Bounds are passed on as bounds.

59 compounds from patent publication US3954871A, “1-(4-Alkylthiopheny)-2-substituted amino-alcohols and their salts” (Continental Pharma, priority 1969, dated 1976) can be followed below.

Test system in the first data set: not listed separately
Nature of the data set: Local anaesthesic activity. Particulars: ED50; interval in brackets; read-out: Local anaesthesic activity ED50. In kind it is in vivo.
Consider `CSc1ccc(C(O)CN2CCCCC2)cc1C` (stereo not drawn) [Table IV No. 8], for which the ED50 – broadly, the dose at which the effect has come halfway, by size or by number of responders – worked out at 1.6 mg/kg.
On the same count and under the same terms, the value for `CSc1ccc(C(O)CN2CCC(C)CC2)cc1C` (stereo not drawn) [Table IV No. 27] was greater than 5 mg/kg.
The same measure, in the same setting: the value for `CCCCSc1ccc(C(O)CN2CCC(C)CC2)cc1C` (stereo not drawn) [Table IV No. 63] was 4.1 mg/kg.

Staying with this data set, now noted: read-out: Local anaesthesic activity ED50.
For the compound `CCN(CC)CCOC(=O)c1ccc(N)cc1` [Procaine, reference compound], the ED50 is 1.8 mg/kg.
On the same count and under the same terms, to `CSc1ccc(C(O)CNC2CCCCC2)cc1C` (stereo not drawn) [Table IV No. 24] belongs greater than 5 mg/kg; to `CCSc1ccc(C(O)CNC2CCCCC2)cc1C` (stereo not drawn) [Table IV No. 51], greater than 5 mg/kg.
As for `CSc1ccc(C(O)CNC(C)C)cc1F` (stereo not drawn) [Table III No. 58, 1-(3-fluoro-4-methylthiophenyl)-2-isopropylaminoethanol], the ED50 was greater than 5 mg/kg.
In the case of `CSc1ccc(C(O)C(C)NC(C)(C)C)cc1Cl` (stereo not drawn) [Table III No. 3], the ED50 was greater than 5 mg/kg.
In the case of `CCC(C(O)c1ccc(SC)c(Cl)c1)N1CCOCC1` (stereo not drawn) [Table III No. 28], the ED50 was greater than 5 mg/kg.
Same read-out and setting: the value for `CCCCNCC(O)c1ccc(SCC)c(C)c1` (stereo not drawn) [compound 80] was greater than 5 mg/kg; that for `CCCC(NC(C)CC)C(O)c1ccc(SC)c(Cl)c1` (stereo not drawn) [compound 40] was roughly 5 mg/kg.
Still for that read-out and setting: to `CSc1c(C)cc(C(O)CNC(C)C)cc1Cl` (stereo not drawn) [Table III No. 64] belongs 4.1 mg/kg.
On the same count and under the same terms, to `CCc1cc(C(O)CNC(C)CC)ccc1SC` (stereo not drawn) [Table III No. 51, 1-(3-Ethyl-4-methylthiophenyl)-2-secbutylaminoethanol] belongs greater than 5 mg/kg; to `CCC(C)NCC(O)c1ccc(SC)c(C)c1` (stereo not drawn) [Table III No. 33, 1-(3-Methyl-4-methylthiophenyl)-2-secbutylaminoethanol], roughly 5 mg/kg; to `CCc1cc(C(O)CNC(C)(C)C)ccc1SC` (stereo not drawn) [Table III No. 50], greater than 5 mg/kg.
In the case of `CCSc1ccc(C(O)CNC(C)(C)C)cc1C` (stereo not drawn) [Table III No. 73], the ED50 is roughly 5 mg/kg.

A further data set has as its system isolated auricles of guinea pigs.
Experiment: not given
Particulars: dose 1.10 - 6 g/ml of bath.
On to `CSc1ccc(C(O)CN2CCCCC2)cc1C` (stereo not drawn) [CH3 S--, 3CH3 (amine drawn)], for which the “Protection against anoxia, activity” value is on record as “+”.
On the same count and under the same terms, to `CSc1ccc(C(O)CNC2CCCCC2)cc1C` (stereo not drawn) [CH3 S--, 3CH3 (amine drawn)] belongs “++”; to `CSc1ccc(C(O)CNC(C)(C)C)cc1C` (stereo not drawn) [Table III No. 12], “+”.

Test system in another data set: not listed separately
In words: in vivo. Particulars: mouse, ip.
Consider `CCCCCCSc1ccc(C(O)CN2CCOCC2)cc1C` (stereo not drawn) [compound 109], for which the LD50 (in general, the dose at which mortality reaches 50%) was determined as 600 mg/kg.
Still for that read-out and setting: the value for `CCSc1ccc(C(O)CNC2CCCCC2)cc1C` (stereo not drawn) [Table III No. 77] was 91 mg/kg.
With `CCSc1ccc(C(O)CNCCc2ccccc2)cc1C` (stereo not drawn) [compound 81], the LD50 worked out at 75 mg/kg.
As for `CSc1ccc(C(O)CNC(C)Cc2ccccc2)cc1C` (stereo not drawn) [compound 31], the 50% lethal dose (LD50) worked out at 75 mg/kg.
On the same count and under the same terms, to `CSc1c(C)cc(C(O)CN2CCCCC2)cc1Cl` (stereo not drawn) [compound 62] belongs 220 mg/kg.
Still for that read-out and setting: to `CCCCNCC(O)c1ccc(SCCCC)c(C)c1` (stereo not drawn) [compound 97] belongs 110 mg/kg; to `Cc1cc(C(O)CN2CCC(C)CC2)ccc1SC(C)C` (stereo not drawn) [compound 133], 110 mg/kg.
Same read-out and setting: to `CCCCSc1ccc(C(O)CN(C)C)cc1C` (stereo not drawn) [compound 94] belongs 150 mg/kg; to `CCCCCCSc1ccc(C(O)CN2CCCCC2)cc1C` (stereo not drawn) [compound 108], 182 mg/kg; to `Cc1cc(C(O)CN2CCC(C)CC2)ccc1SCC(C)C` (stereo not drawn) [compound 85], 182 mg/kg.
For the compound `CCCCCSc1ccc(C(O)CNCCCC)cc1C` (stereo not drawn) [compound 104], the median lethal dose (LD50) was 75 mg/kg.
Same read-out and setting: the value for `Cc1cc(C(O)CNC(C)C)ccc1SC(C)C` (stereo not drawn) [compound 127] was 182 mg/kg; that for `CSc1ccc(C(O)CN)cc1C` (stereo not drawn) [compound 41] was 150 mg/kg.
Compound `CCc1cc(C(O)CNC(C)(C)C)ccc1SC` (stereo not drawn) [compound 50] gave an LD50 of 150 mg/kg.
Same read-out and setting: to `CCSc1ccc(C(O)CNC(C)Cc2ccccc2)cc1C` (stereo not drawn) [compound 83] belongs 110 mg/kg; to `CCCCSc1ccc(C(O)CN2CCC(C)CC2)cc1C` (stereo not drawn) [compound 96], 182 mg/kg; to `CCCCCCSc1ccc(C(O)CNC(C)(C)C)cc1C` (stereo not drawn) [compound 107], 110 mg/kg.
On the same count and under the same terms, to `CSc1ccc(C(O)C(C)NC(C)(C)C)cc1Cl` (stereo not drawn) [Table III No. 3] belongs 440 mg/kg.
Still for that read-out and setting: to `CCSc1ccc(C(O)CNC(C)C)cc1C` (stereo not drawn) [compound 74] belongs 150 mg/kg.
The compound `CCCCNCC(O)c1ccc(SCC)c(C)c1` (stereo not drawn) [compound 80] registered an LD50 of 110 mg/kg.
On the same count and under the same terms, to `CCCCNCC(O)c1ccc(SC)c(Cl)c1` (stereo not drawn) [Table III No. 15] belongs 110 mg/kg.
The same measure, in the same setting: to `Cc1cc(C(O)CNC(C)(C)C)ccc1SC(C)C` (stereo not drawn) [compound 125] belongs 150 mg/kg; to `CSc1c(C)cc(C(O)CNC(C)C)cc1Cl` (stereo not drawn) [Table III No. 64], 182 mg/kg.
The same measure, in the same setting: to `CCCCCSc1ccc(C(O)CNC(C)(C)C)cc1C` (stereo not drawn) [compound 102] belongs 91 mg/kg; to `CCC(C)NC(C)C(O)c1ccc(SC)c(Cl)c1` (stereo not drawn) [Table III No. 8], 150 mg/kg; to `Cc1cc(C(O)CN2CCOCC2)ccc1SC(C)C` (stereo not drawn) [compound 126], 440 mg/kg.
The compound `CCCCNCC(O)c1ccc(SC(C)C)c(C)c1` (stereo not drawn) [compound 129] displayed a 50% lethal dose (LD50) of 46 mg/kg.
`Cc1cc(C(O)CN2CCCCC2)ccc1SCC(C)C` (stereo not drawn) [compound 86] showed a median lethal dose (LD50) of 110 mg/kg.
Still for that read-out and setting: to `CCCCCCCCNCC(O)c1ccc(SC(C)C)c(C)c1` (stereo not drawn) [compound 131] belongs 86 mg/kg.
On the same count and under the same terms, to `CCCCSc1ccc(C(O)CN2CCCCC2)cc1C` (stereo not drawn) [compound 93] belongs 182 mg/kg; to `Cc1cc(C(O)CNC2CCCCC2)ccc1SC(C)C` (stereo not drawn) [compound 130], 75 mg/kg.
On the same count and under the same terms, the value for `CCCCSc1ccc(C(O)CNC(C)(C)C)cc1C` (stereo not drawn) [compound 90] was 91 mg/kg.
With `CCCCCCCCNCC(O)c1ccc(SC)c(CC)c1` (stereo not drawn) [compound 45], the 50% lethal dose (LD50) amounted to 75 mg/kg.
Same read-out and setting: the value for `CSc1ccc(C(O)C(C)N2CCC(C)CC2)cc1C` (stereo not drawn) [Table III No. 20] was 91 mg/kg; that for `CCCCCCSc1ccc(C(O)CNCCC)cc1C` (stereo not drawn) [compound 112] was 364 mg/kg; that for `CCSc1ccc(C(O)CNC(C)(C)C)cc1C` (stereo not drawn) [Table III No. 73] was 220 mg/kg.
On the same count and under the same terms, the value for `CCCCSc1ccc(C(O)CN2CCCC(C)C2)cc1C` (stereo not drawn) [compound 95] was 150 mg/kg; that for `CSc1ccc(C(O)CNC(C)Cc2ccccc2)cc1Cl` (stereo not drawn) [Table III No. 22] was 55 mg/kg; that for `Cc1cc(C(O)CN2CCCCC2)ccc1SC(C)C` (stereo not drawn) [compound 124] was 150 mg/kg.

The subject of the next data set is mice. Nature of the data set: Anti-arrhythmic activity in mice. In kind it is in vivo. Particulars: Mus musculus, po, 0.5 h, read-out: Anti-arrhythmic activity: number of mice protected in relation with the number of tested mice. Here is the method: ^(4) Number of mice protected in relation with the number of tested
mice (dose = 100 mg/kg per os; recording 30 min. after administration)
`CSc1ccc(C(O)CNC2CCCCC2)cc1C` (stereo not drawn) [Table IV No. 24]: the responders at 100 mg/kg was 40%.
Same read-out and setting: to `CSc1ccc(C(O)CNC(C)C)cc1F` (stereo not drawn) [Table III No. 58, 1-(3-fluoro-4-methylthiophenyl)-2-isopropylaminoethanol] belongs 20%; to `CSc1ccc(C(O)C(C)NC(C)(C)C)cc1Cl` (stereo not drawn) [Table III No. 3], 10%.
The same measure, in the same setting: to `CCCCSc1ccc(C(O)CNC(C)C(O)c2ccccc2)cc1C` (stereo not drawn) [Table IV No. 66] belongs 20%; to `CCc1cc(C(O)CNC(C)CC)ccc1SC` (stereo not drawn) [Table III No. 51, 1-(3-Ethyl-4-methylthiophenyl)-2-secbutylaminoethanol], 60%.
As to `COc1cc(C(O)CNC(C)(C)C)ccc1SC` (stereo not drawn) [Table IV No. 33, 1-(3-Methoxy-4-methylthiophenyl)-2-tertbutylaminoethanol hydrochloride], the responders at 100 mg/kg stood at 20%.
Still for that read-out and setting: the value for `CCC(C)NCC(O)c1ccc(SC)c(C)c1` (stereo not drawn) [Table III No. 33, 1-(3-Methyl-4-methylthiophenyl)-2-secbutylaminoethanol] was 40%.
Still for that read-out and setting: to `CCc1cc(C(O)CNC(C)(C)C)ccc1SC` (stereo not drawn) [Table III No. 50] belongs 50%; to `CCCCCCCCSc1ccc(C(O)CNC(C)CC)cc1C` (stereo not drawn) [Table III No. 117], 30%.
Same read-out and setting: to `CSc1ccc(C(O)CNC(C)(C)C)cc1Cl` (stereo not drawn) [Table III No. 2] belongs 10%.

Staying with this data set, now noted: Mus musculus, po, 0.5 h; 100 mg/kg per os; recording 30 min. after administration; read-out: Anti-arrhythmic activity: number of mice protected in relation with the number of tested mice.
Regarding `C=C[C@H]1C[N@@]2CC[C@H]1C[C@@H]2[C@@H](O)c1ccnc2ccc(OC)cc12` [Quinidine, reference compound], the responders at 100 mg/kg amounted to 20%.
On the same count and under the same terms, the value for `CSc1ccc(C(O)CN2CCCCC2)cc1C` (stereo not drawn) [Table IV No. 8] was 20%; that for `CSc1ccc(C(O)CN2CCC(C)CC2)cc1C` (stereo not drawn) [Table IV No. 27] was 20%.
The same measure, in the same setting: the value for `CCCCSc1ccc(C(O)CN2CCC(C)CC2)cc1C` (stereo not drawn) [Table IV No. 63] was 20%.
